Data set [1] deals with Mus musculus. The experiment in a line: Neurotoxicity in Albino mouse at 300 mg/kg, ip after 0.5 hrs by rotarod test. To be noted: in vivo. In kind it is toxicity, organism-based. Details: dose 300 mg/kg, route intraperitoneal. Background: In the rotarod test animals must keep their balance on a rotating rod.
Data set [2] concerns Mus musculus. The experiment in a line: Anticonvulsant activity against pentylenetetrazole-induced seizures in Albino mouse at 300 mg/kg, ip after 4 hrs. Details: dose 300 mg/kg. In kind it is functional, organism-based.
The subject of data set [3] is Mus musculus. Description: Anticonvulsant activity against maximal electroshock-induced seizure in Albino mouse at 300 mg/kg, ip after 0.5 hrs. It counts as functional, organism-based. Further details: dose 300 mg/kg.
Data set [4] deals with Mus musculus. Description: Neurotoxicity in Albino mouse at 300 mg/kg, ip after 4 hrs by rotarod test. In kind it is toxicity, organism-based. Further details: dose 300 mg/kg, route intraperitoneal. Particulars: in vivo.
The test system of data set [5] is Mus musculus. The experiment in a line: Anticonvulsant activity against pentylenetetrazole-induced seizures in Albino mouse at 300 mg/kg, ip after 0.5 hrs. In kind it is functional, organism-based. Further details: dose 300 mg/kg.
The subject of data set [6] is Mus musculus. Description: Anticonvulsant activity against maximal electroshock-induced seizure in Albino mouse at 300 mg/kg, ip after 4 hrs. Details: dose 300 mg/kg. It counts as functional, organism-based. In general terms: Protection in the maximal electroshock model is a classic sign of anticonvulsant action.
Data set [7] deals with Mus musculus. Description: Anticonvulsant activity against maximal electroshock-induced seizure in Albino mouse at 30 mg/kg, ip after 4 hrs. It counts as functional, organism-based. Details: dose 30 mg/kg.
The test system of data set [8] is Mus musculus. The experiment in a line: Neurotoxicity in Albino mouse at 100 mg/kg, ip after 0.5 hrs by rotarod test. It counts as toxicity, organism-based. Further details: dose 100 mg/kg, route intraperitoneal. To be noted: in vivo.
Data set [9] has as its system Mus musculus. The experiment in a line: Anticonvulsant activity against maximal electroshock-induced seizure in Albino mouse at 30 mg/kg, ip after 0.5 hrs. In kind it is functional, organism-based. Details: dose 30 mg/kg.
The test system of data set [10] is Mus musculus. Description: Neurotoxicity in Albino mouse at 100 mg/kg, ip after 4 hrs by rotarod test. Details: dose 100 mg/kg, route intraperitoneal. In kind it is toxicity, organism-based. To be noted: in vivo.
In data set [11] the test system is Rattus norvegicus. Description: Anticonvulsant activity against maximal electroshock-induced seizure in rat at 30 mg/kg, po after 0.5 hrs. Further details: dose 30 mg/kg. In kind it is functional, organism-based.
Data set [12] concerns Mus musculus. The experiment in a line: Anticonvulsant activity against pentylenetetrazole-induced seizures in Albino mouse at 100 mg/kg, ip after 0.5 hrs. Further details: dose 100 mg/kg. It counts as functional, organism-based.
Data set [13] concerns Rattus norvegicus. Description: Anticonvulsant activity against maximal electroshock-induced seizure in rat at 30 mg/kg, po upto 4 hrs. It counts as functional, organism-based. Details: dose 30 mg/kg.
The subject of data set [14] is Mus musculus. The experiment in a line: Anticonvulsant activity against maximal electroshock-induced seizure in Albino mouse at 100 mg/kg, ip after 4 hrs. It counts as organism-based. Details: dose 100 mg/kg, route intraperitoneal. To be noted: in vivo.
The subject of data set [15] is Rattus norvegicus. The experiment in a line: Toxicity in rat at 30 mg/kg upto 4 hrs. In kind it is organism-based. Details: dose 30 mg/kg. Particulars: in vivo.
For data set [16], the system named is Mus musculus. The experiment in a line: Anticonvulsant activity against maximal electroshock-induced seizure in Albino mouse at 100 mg/kg, ip after 0.5 hrs. To be noted: in vivo. Further details: dose 100 mg/kg, route intraperitoneal. It counts as organism-based.
In data set [17] the test system is Rattus norvegicus. Description: Anticonvulsant activity against maximal electroshock-induced seizure in rat at 30 mg/kg, po after 1 hr. It counts as functional, organism-based. Further details: dose 30 mg/kg.
Data set [18] has as its system Rattus norvegicus. Description: Anticonvulsant activity against maximal electroshock-induced seizure in rat at 30 mg/kg, po after 0.25 hrs. It counts as functional, organism-based. Details: dose 30 mg/kg.

Calls of active or inactive are those of the source. No cut-off for these calls is given here.

As for `CNC(=S)Nc1ccc(S(=O)(=O)Nc2nc3ccc(F)cc3s2)cc1`, the Activity result in the data set on Mus musculus [1] and in the data set with Mus musculus [4] was “Non-toxic” in each case. The outcome in the data set on Mus musculus [2], in the data set on Mus musculus [5] and in the data set with Mus musculus [6] was inactive. For the same compound, in the data set on Mus musculus [3], the outcome was Active.
Take `CNC(=S)Nc1ccc(S(=O)(=O)Nc2ccc(Br)cc2)cc1`: the Activity entry in the data set with Mus musculus [1] is “Toxic”; with Mus musculus [4] it was “Non-toxic”. In the data set with Mus musculus [2], the result was inactive. Moreover, the result in the data set with Mus musculus [3] and in the data set with Mus musculus [5] was Active.
Regarding `O=C1NC(=O)C(c2ccccc2)(c2ccccc2)N1` [PHENYTOIN], the outcome with Mus musculus [7], in the data set with Mus musculus [9] and in the data set on Rattus norvegicus [11] was Active. Also, the outcome with Mus musculus [2] and in the data set with Mus musculus [5] was inactive. In addition, the Activity entry in the data set on Mus musculus [8] and with Mus musculus [10] was “Toxic” throughout.
With `CCNC(=S)Nc1ccc(S(=O)(=O)Nc2nc3ccc(OC)cc3s2)cc1`, the Activity entry with Mus musculus [1] and in the data set on Mus musculus [4] was “Non-toxic” each time. Also, the outcome in the data set with Mus musculus [2], in the data set on Mus musculus [3], in the data set on Mus musculus [5] and in the data set with Mus musculus [6] was inactive.
For `CNC(=S)Nc1ccc(S(=O)(=O)Nc2ccc(Cl)cc2)cc1`, the Activity result with Mus musculus [1] and in the data set on Mus musculus [4] was “Toxic” throughout. For the same compound, the outcome with Mus musculus [3], in the data set with Mus musculus [5] and with Mus musculus [6] was Active.
For `NC(=O)N1c2ccccc2C=Cc2ccccc21` [CARBAMAZEPINE], the outcome in the data set with Mus musculus [2] and in the data set with Mus musculus [6] was inactive. The Activity result with Mus musculus [8] and in the data set on Mus musculus [4] was “Toxic” in each case. The result in the data set on Mus musculus [12] and in the data set on Mus musculus [9] was Active.
Turning to `CCC1(C)CC(=O)NC1=O` (stereo not given) [ETHOSUXIMIDE], the Activity result with Mus musculus [1] and in the data set on Mus musculus [4] was “Non-toxic” in each case. Besides, the outcome with Mus musculus [2], in the data set with Mus musculus [3] and in the data set with Mus musculus [6] was inactive. The result with Mus musculus [5] was Active.
`CCNC(=S)Nc1ccc(S(=O)(=O)Nc2nc3ccc(F)cc3s2)cc1`: the Activity result with Mus musculus [1] and in the data set on Mus musculus [4] was “Non-toxic” each time. Further, the result in the data set with Mus musculus [2] and in the data set with Mus musculus [6] was inactive. Moreover, the outcome with Mus musculus [3] and with Mus musculus [5] was Active.
For the compound `CNC(=S)Nc1ccc(S(=O)(=O)Nc2nc3ccc(Cl)cc3s2)cc1`, the result in the data set on Rattus norvegicus [13] and in the data set with Mus musculus [2] was Active. Also, the Activity entry is on record as “Non-toxic” with Mus musculus [1], “Toxic” in the data set on Mus musculus [4], “Active” in the data set on Mus musculus [14] and “Non-toxic” with Rattus norvegicus [15]. In addition, the result with Mus musculus [3] and with Mus musculus [5] was inactive.
Take `Cc1ccc(NC(=S)Nc2ccc(S(=O)(=O)Nc3ccc(Br)cc3)cc2)cc1`: the Activity entry in the data set with Mus musculus [1] is recorded as “Toxic”; with Mus musculus [4] it was “Toxic”; in the data set on Mus musculus [16], “Active”. Further, in the data set on Mus musculus [2], the outcome was inactive. In addition, the result with Mus musculus [5] and with Mus musculus [6] was Active.
As for `Cc1ccc(NC(=S)Nc2ccc(S(=O)(=O)Nc3ccc(Cl)cc3)cc2)cc1`, the Activity result in the data set with Mus musculus [1] is listed as “Toxic”; in the data set on Mus musculus [4], “Toxic”; in the data set with Mus musculus [16], “Active”. Besides, the outcome with Mus musculus [5] and with Mus musculus [6] was Active.
For `Cc1ccc(NC(=S)Nc2ccc(S(=O)(=O)Nc3ccc(C)cc3)cc2)cc1`, the Activity entry is reported as “Toxic” with Mus musculus [1] and “Non-toxic” in the data set on Mus musculus [4]. Further, the outcome in the data set on Mus musculus [2] was inactive. Besides, the outcome in the data set with Mus musculus [3], with Mus musculus [5] and in the data set on Mus musculus [6] was Active.
For the compound `CCNC(=S)Nc1ccc(S(=O)(=O)Nc2nc3ccc(Cl)cc3s2)cc1`, the outcome with Mus musculus [7], in the data set with Rattus norvegicus [13] and in the data set with Mus musculus [2] was Active. Moreover, the figures for the Activity result with Mus musculus [1], in the data set on Mus musculus [4] and in the data set on Rattus norvegicus [15] were “Non-toxic”, “Toxic” and “Non-toxic”, respectively. Also, the result with Mus musculus [3], in the data set on Mus musculus [5], with Rattus norvegicus [17], in the data set with Rattus norvegicus [11] and in the data set on Rattus norvegicus [18] was inactive.
With `CCCC(CCC)C(=O)O` [VALPROIC ACID], the Activity result with Mus musculus [1] and in the data set on Mus musculus [4] was “Non-toxic” each time. Further, the result in the data set with Mus musculus [2], in the data set on Mus musculus [3] and with Mus musculus [6] was inactive. Also, in the data set with Mus musculus [5], the outcome was Active.
`CNC(=S)Nc1ccc(S(=O)(=O)Nc2nc3ccc(OC)cc3s2)cc1`: the Activity result with Mus musculus [1] and with Mus musculus [4] was “Non-toxic” in each case. Also, the result in the data set with Mus musculus [2], in the data set on Mus musculus [5] and with Mus musculus [6] was inactive. For the same compound, in the data set with Mus musculus [3], the result was Active.

Source of the values: ChEMBL document CHEMBL1138381, “Synthesis and anticonvulsant activity of sulfonamide derivatives-hydrophobic domain” (Bioorg Med Chem Lett, 2007).
